# From US20240269112A1 (priority 2020, published 2024)
# Columns and labels:
# [1] = test system: septic patients who have undergone abdominal surgery; conditions: human, in vivo
# Text: The following parameters related to kidney function have been determined: • Creatinine is a waste molecule generated from muscle metabolism. Creatinine originates from creatine, a very important molecule for energy production in the muscle. About 2% of creatine in the body is converted into creatinine every day. Creatinine is transported from muscles to the kidney by blood. The kidneys filter most of the creatinine and eliminate it in the urine. Determination of serum creatinine is a test which provides a fairly reliable indication of the state of kidney function. • Urea, the determination of which is the most widely used test to assess kidney function. Urea is the end product of protein and amino acid metabolism. In protein degradation, proteins are split into amino acids and deaminated. Urea is synthesized in the liver with the ammonia that is formed. This is the most important pathway for degrading excess nitrogen in the human body.
# [2] = test system: Covid-19 patients admitted to the ICU; assay: IV melatonin in Covid-19 ICU patients: systemic inflammatory response (ferritin, D-dimer, CRP, IL-6, lymphocytes); type: in vivo, human
# Description: (§1) To conduct this study, all patients received standard treatment according to institutional protocols. Furthermore, patients were assigned randomly in a 2:1 ratio to receive: • Experimental group (12 patients): 7 days of 5 mg/kg body weight/day of intravenous melatonin every 6 hours. Daily maximum dose of 500 mg a day. • Control group (6 patients): 7 days of 5 mg/kg body weight/day of placebo with identical appearance through the intravenous route every 6 hours.
# (§2) After 3 days of treatment, 3 intensive care physicians evaluated each participant and decided whether or not they wished to complete the treatment based on their clinical assessment: • If there were objective or subjective signs of improvement or non-worsening of general clinical condition or respiratory failure, with no observation of inflammatory condition or multiorgan failure, the participant continued treatment until completion. • If an adverse effect or clinical deterioration which can be objectively or subjectively attributed to the study drug was observed, treatment was discontinued.
# (§3) The injectable composition was prepared according to the criteria established in Example 1 by adjusting the amounts to 5 mg/kg body weight/day of intravenous melatonin every 6 hours.
# (§4) • To evaluate whether iv treatment with melatonin reduced the duration of ICU (intensive care unit) admission. • To evaluate whether iv treatment with melatonin reduced the duration of mechanical ventilation (MV). • To evaluate whether iv treatment with melatonin was associated with an increase in MV-free days. • To evaluate whether iv treatment with melatonin is associated with a reduction in systemic inflammatory response, defined by the levels of ferritin, D-dimer, C-reactive protein (CRP) or procalcitonin (PCT) and IL-6. 1. Evaluating Whether iv Treatment with Melatonin Reduced the Duration of ICU (Intensive Care Unit) Admission (See FIG. 7)
# [3] = test system: septic patients who have undergone abdominal surgery; assay: Clinical study with septic patients: blood parameters (leukocytes, red blood cells, hemoglobin, hematocrit, neutrophils, lymphocytes, platelets); conditions: regardless of time, p=0.007
# Description: The following blood parameters from these samples were analyzed for each of the participating patients: the number of leukocytes, the number of red blood cells, hemoglobin, hematocrit, percentage of neutrophils, percentage of lymphocytes, and the number of platelets.
# [4] = test system: Covid-19 patients admitted to the ICU; assay: Efficacy and safety of IV melatonin in Covid-19 patients admitted to the ICU: hospital/ICU stay, mechanical ventilation, adverse reactions; type: in vivo, human
# Description: as §1, §2, §3, §4
# [5] = test system: septic patients who have undergone abdominal surgery; conditions: human, in vivo; remark: listed apart in the source
# Text: The enzyme lactate dehydrogenase (or also called “lactic acid dehydrogenase” (LDH)), an enzyme which is found in almost all the tissues in the human body, has been determined to detect injuries in tissues such as the liver. It plays an important role in cellular respiration (the process in which glucose from foods is converted into energy which can be used by cells).
# Although LDH is abundant in tissue cells, the levels in blood are generally low. However, when tissues are damaged as a result of an injury or a disease, they release more LDH into the blood stream. This increase in the amount of LDH in the blood stream is often caused by the following conditions: liver diseases, heart attacks, anemia, muscle trauma, bone fracture, cancer, infections such as meningitis, encephalitis, or HIV.
# [6] = test system: septic patients who have undergone abdominal surgery; conditions: human, in vivo; remark: listed apart in the source
# [7] = 5 mg/kg/day iv every 6 hours, 7 days
structure (smiles),measurement,setting,value
"COc1ccc2[nH]cc(CCNC(C)=O)c2c1 [melatonin, N-acetyl-5-methoxytryptamine]",Levels of creatinine compared between groups A and B in each time point,[1],no statistically significant differences
same,Levels of urea compared between the two groups in each time point,[1],higher in group B (placebo)
same,Inflammatory response,[2]; 5 mg/kg/day for 7 days,improvement in the inflammatory response
same,Levels of dimer-D (D-dimer),"[2]; during the days of treatment, FIG. 2",reduction
same,Levels of ferritin,"[2]; during the days of treatment, FIG. 3",reduction
same,Levels of CRP,"[2]; during the days of treatment, FIG. 4",reduction
same,IL6,"[2]; during the days of treatment, FIG. 5",reduction
same,Bilirubin,[2]; during treatment,has to drop
same,Neutrophils,[2]; during treatment,tendency of neutrophils decreasing
same,Lymphocytes with respect to placebo,"[2]; during treatment, FIG. 6",increase
same,"Neutrophil average, group A compared with group B (placebo)",[3],higher in group B (placebo) than in group A (melatonin)
same,Adverse reactions,[4]; 5 mg/kg/day for 7 days,did not cause any adverse reactions
same,Increase in the number of days without mechanical ventilation compared to placebo,[4]; 5 mg/kg/day for 7 days,16 days
same,Reduction in invasive mechanical ventilation compared to placebo,[4]; 5 mg/kg/day for 7 days,9 days
same,Days without mechanical ventilation during hospitalization (MV-free days),[4]; [7],40 days
same,Duration of ICU admission compared to placebo,[4]; [7],no significant difference
same,Duration of invasive mechanical ventilation,[4]; [7],21 days
same,Duration of non-invasive mechanical ventilation,[4]; [7],16.5 days
same,Reduction in hospital stay compared to placebo,[4]; [7],15 days
same,Levels of LDH compared between the two groups in each time point,[5],higher in group A (melatonin)
same,ALP (alkaline phosphatase): average values between groups,[6],not statistically significant
same,GGT: average values between groups,[6],not statistically significant
same,GOT: differences in average values between groups,[6],not statistically significant
same,GPT: average values between groups,[6],not statistically significant
